Results taken from US20070122360A1, “Nonaqueous gel composition for tooth whitening and tooth whitening set” (LION CORPORATION, priority 2003, published 2007).

Columns and labels:
[1] = Solubility of ingredient (B) in tooth whitening ingredient (A), visual check for undissolved residues; conditions: for Solubility in PEG#300 (Av. MW 280-320): 0.1 g in 100 g PEG#300, 37° C.; for Solubility in 1,3-butylene glycol: 0.1 g in 100 g 1,3-butylene glycol
Protocol: (§1) If the ingredient (B) is liquid, the term “is precipitated by an aqueous solution of calcium chloride” means that the ingredient (B) forms precipitates or becomes turbid.
A sample (0.1 g) of the ingredient (B) is added to 100 g of the tooth whitening ingredient (A), and the resulting mixture is stirred at 37° C. for 16 hours and allowed to stand at 37° C. for 24 hours. The mixture is visually examined for undissolved residues of the ingredient (B).
Criterion for Overall Rating: • ◯: More than 0.1 g is soluble in 100 g of ingredient (A) and less than 0.1 g is soluble in 100 g of aqueous solution of 1 mmol/L calcium chloride.
X: Other than specified above.

[2] = Solubility of ingredient (B) in aqueous solution of 1 mmol/L calcium chloride; conditions: 0.1 g in 100 g aqueous 1 mmol/L calcium chloride, 37° C.
Protocol: as §1
Solubility of the ingredient (B) in an aqueous solution of 1 mmol/L calcium chloride was determined in the same way as above.

[3] = Measurement of relative permittivity (LCR meter, 100 kHz, 1 V); format: physicochemical
Protocol: The sample (100 mL) was tested for relative permittivity at 25° C. at a frequency of 100 kHz and a voltage of 1 V by using an LCR meter (HP4284A, with HP16452A electrode for liquid, from Hewlett Packard).

[4] = Measurement of vapor pressure (vapor-liquid equilibrium apparatus)
Protocol: The sample (80 mL in a cell) was tested for vapor pressure at (25° C.) by using a vapor-liquid equilibrium measuring apparatus (VLE autolabo, from TOYO KOATSU Co., Ltd.).

| Relative Permittivity (at 25° C.) [3] | Vapor pressure kPa (at 25° C.) [4] [kPa] | SMILES | Solubility in Aqueous solution of 1 mmol/L calcium chloride [2] | also measured |
| --- | --- | --- | --- | --- |
|  |  | CCCCCCCC/C=C\CCCCCCCC(=O)O [Oleic acid] | X (solubility less than 0.1 g (with undissolved residues)) | Solubility in PEG#300 (Av. MW 280-320) [1]: ◯ (solubility more than 0.1 g (no undissolved residues)) |
|  |  | CCCCCC/C=C\CCCCCCCC(=O)O [Palmitoleic acid] | X (solubility less than 0.1 g (with undissolved residues)) | Solubility in 1,3-butylene glycol ([1]; 37° C.): ◯ (solubility more than 0.1 g (no undissolved residues)); Solubility in PEG#300 (Av. MW 280-320) [1]: ◯ (solubility more than 0.1 g (no undissolved residues)); Solubility in Propylene glycol ([1]; 0.1 g in 100 g Propylene glycol, 37° C.): ◯ (solubility more than 0.1 g (no undissolved residues)) |
|  |  | CCCCCCCC/C=C\CCCCCCCCCCCC(=O)O [Erucic acid] | X (solubility less than 0.1 g (with undissolved residues)) | Solubility in PEG#300 (Av. MW 280-320) [1]: ◯ (solubility more than 0.1 g (no undissolved residues)) |
| 19.9 | 5819 | CC(C)O [Isopropanol] |  |  |
|  |  | CCCCCCCCCCCCCC(=O)O [Myristic acid] | X (solubility less than 0.1 g (with undissolved residues)) | Solubility in PEG#300 (Av. MW 280-320) [1]: ◯ (solubility more than 0.1 g (no undissolved residues)) |
| 24.6 | 7948 | CCO [Ethanol] |  |  |
| 26.2 | 0 | CC(O)COC(C)CO (stereo not shown) [Dipropylene glycol] |  |  |
| 42.5 | 3 | OCC(O)CO [Glycerin] |  |  |
|  |  | CCCCCCCCCCCC(=O)O [Lauric acid, reference compound] | ◯ (solubility more than 0.1 g (no undissolved residues)) | Solubility in 1,3-butylene glycol ([1]; 37° C.): ◯ (solubility more than 0.1 g (no undissolved residues)) |
|  |  | [Cl-].[Cl-].[Zn+2] [Zinc chloride, reference compound] | ◯ (solubility more than 0.1 g (no undissolved residues)) | Solubility in 1,3-butylene glycol ([1]; 37° C.): ◯ (solubility more than 0.1 g (no undissolved residues)) |
| 32.0 | 1 | CC(O)CO (stereo not shown) [Propylene glycol] |  |  |

| SMILES | Relative Permittivity (at 25° C.) [3] | Vapor pressure kPa (at 25° C.) [4] [kPa] | Solubility in Aqueous solution of 1 mmol/L calcium chloride [2] | also measured |
| --- | --- | --- | --- | --- |
| OCCO [Ethylene glycol] | 37.7 | 59 |  |  |
| O [Water] | 78.3 |  |  |  |
| CC(O)CCO (stereo not shown) [1,3-dibutylene glycol] | 33.5 | 108 |  |  |
| OCCOCCO [Diethylene glycol] | 33.0 | 11 |  |  |
